Structures are written as SMILES.

Experiment [1] concerns the target T1, EGFR L858R (BaF3-L858R cells) (Homo sapiens, UniProt P00533, L858R).
T1 construct: host or cells: BaF3
The experiment in a line: EGFR degradation in BaF3-L858R cells (HTRF assay). Type of experiment: cell-based. As to conditions: 16 h treatment; for DC50: IC50(DC50) of EGFR degradation; for Dmax: maximum percentage of inhibition (degradation). How it is done:
BaF3-L858R (abbv. L858R) cell were purchased from Kangyuan Bochuang Biotechnology (Beijing) Co., Ltd.
(§1) H1975-#8 and BaF3-L858R cells are treated with compounds diluted in 0.1% DMSO cell culture medium on day 2, incubate for 16 h, 37° C., 5% CO2. the final concentration of compounds in all assay is start with 10 uM, 5-fold dilution, total 8 doses were included.
(§2) After 16 h treatment, for H1975-#8 cells, add 100 ul HTRF 1× lysis buffer to each well; for BaF3-L858R cells, add 20 μl 4× lysis buffer to each well; seal the plate and incubate 1 hour at room temperature on a plate shaker; Once the cells are lysed, 16 μL of cell lysate are transferred to a PE 384-well HTRF detection plate; 4 μL of pre-mixed HTRF antibodies are added to each well; Cover the plate with a plate sealer, spin 1000 rpm for 1 min, Incubate overnight at room temperature; Read on BMG PheraStar with HTRF protocol (337 nm-665 nm-620 nm).
(§3) The inhibition (degradation) percentage of the compound was calculated by the following equation:
(§4) High control=Cell group with added DMSO and without compound, indicating microplate readings without EGFR degradation;
(§5) Dmax is the maximum percentage of inhibition (degradation).
(§6) The IC50(DC50) value of a compound can be obtained by fitting the following equation
(§7) Wherein, X and Y are known values, and IC50, Hillslope, Top and Bottom are the parameters obtained by fitting with software. Y is the inhibition percentage (calculated from the equation), X is the concentration of the compound; IC50 is the concentration of the compound when the 50% inhibition is reached. The smaller the IC50 value is, the stronger the inhibitory ability of the compound is. Vice versa, the higher the IC50 value is, the weaker the ability the inhibitory ability of the compound is; Hillslope represents the slope of the fitted curve, generally around 1*; Bottom represents the minimum value of the curve obtained by data fitting, which is generally 0%±20%; Top represents the maximum value of the curve obtained by data fitting, which is generally 100%±20%. The experimental data were fitted by calculating and analyzing with Dotmatics data analysis software.
Background: In TR-FRET formats the signal depends on donor and acceptor labels being close together.

Experiment [2] has as its target T2, EGFR-L858R/C797S (H1975-clone #8 cells) (Homo sapiens, UniProt P00533, C797S/L858R).
T2 construct: expressed in transfected cells; host or cells: H1975 (lentiviral transduction, endogenous EGFR knocked out, single clone #8)
Description: EGFR degradation in H1975-clone#8 (L858R/C797S) cells (HTRF assay). Type of experiment: cell-based. As to conditions: 16 h treatment; for DC50: IC50(DC50) of EGFR degradation; for Dmax: maximum percentage of inhibition (degradation). Here is the method: H1975-clone #8 (L858R/C797S): EGFR-L858R/C797S were stably expressed in H1975 cell lines by lentivirus-mediated over-expression, respectively. The EGFR over-expressed cells then underwent knockout, in which the EGFR targeting sgRNA was designed to only target the endogenous EGFR copies and preserve the exogenous EGFR copies. Followed by the knockout, the edited H1975 cells were seeded in 96 well plates at the concentration of […], cultured for about 2 weeks to allow single clones formation. The formed clones were screened by DNA sequencing and whole exon sequencing analysis for the desired edition. H1975-clone #8 were finally confirmed as homozygous L858R/C797S EGFR clones.
as §1, §2, §3, §4, §5, §6, §7

T1 sequence (P00533 25-1210 L858R): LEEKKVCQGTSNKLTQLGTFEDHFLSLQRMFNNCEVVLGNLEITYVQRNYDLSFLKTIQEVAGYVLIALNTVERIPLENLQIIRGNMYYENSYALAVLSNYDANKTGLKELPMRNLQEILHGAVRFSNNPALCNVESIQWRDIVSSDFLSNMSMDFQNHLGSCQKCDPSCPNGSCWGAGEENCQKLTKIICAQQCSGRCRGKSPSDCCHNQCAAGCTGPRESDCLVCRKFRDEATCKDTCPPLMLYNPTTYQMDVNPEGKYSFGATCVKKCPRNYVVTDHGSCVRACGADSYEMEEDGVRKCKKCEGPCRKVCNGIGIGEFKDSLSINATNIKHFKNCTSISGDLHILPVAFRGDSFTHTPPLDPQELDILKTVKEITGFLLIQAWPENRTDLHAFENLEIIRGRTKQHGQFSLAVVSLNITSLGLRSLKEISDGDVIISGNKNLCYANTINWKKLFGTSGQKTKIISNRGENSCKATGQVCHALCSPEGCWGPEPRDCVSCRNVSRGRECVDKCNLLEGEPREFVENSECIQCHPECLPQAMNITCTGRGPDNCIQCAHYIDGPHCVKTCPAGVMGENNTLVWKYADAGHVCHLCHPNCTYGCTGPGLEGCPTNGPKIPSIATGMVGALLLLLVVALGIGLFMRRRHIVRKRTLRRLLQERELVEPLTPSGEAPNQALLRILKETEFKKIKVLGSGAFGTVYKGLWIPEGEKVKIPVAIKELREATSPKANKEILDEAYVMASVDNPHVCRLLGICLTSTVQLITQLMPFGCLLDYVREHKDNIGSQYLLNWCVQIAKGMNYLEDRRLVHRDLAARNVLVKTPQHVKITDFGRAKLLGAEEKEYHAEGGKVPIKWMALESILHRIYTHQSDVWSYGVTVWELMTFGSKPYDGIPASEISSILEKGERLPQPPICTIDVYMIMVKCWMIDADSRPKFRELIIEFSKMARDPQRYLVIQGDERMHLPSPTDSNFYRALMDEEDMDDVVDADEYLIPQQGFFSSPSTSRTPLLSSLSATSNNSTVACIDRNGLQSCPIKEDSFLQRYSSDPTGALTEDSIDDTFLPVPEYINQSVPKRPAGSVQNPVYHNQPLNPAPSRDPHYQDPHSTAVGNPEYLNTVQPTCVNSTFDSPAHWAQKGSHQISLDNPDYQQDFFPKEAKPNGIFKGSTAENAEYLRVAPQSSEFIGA
T2 sequence (P00533 25-1210 C797S/L858R): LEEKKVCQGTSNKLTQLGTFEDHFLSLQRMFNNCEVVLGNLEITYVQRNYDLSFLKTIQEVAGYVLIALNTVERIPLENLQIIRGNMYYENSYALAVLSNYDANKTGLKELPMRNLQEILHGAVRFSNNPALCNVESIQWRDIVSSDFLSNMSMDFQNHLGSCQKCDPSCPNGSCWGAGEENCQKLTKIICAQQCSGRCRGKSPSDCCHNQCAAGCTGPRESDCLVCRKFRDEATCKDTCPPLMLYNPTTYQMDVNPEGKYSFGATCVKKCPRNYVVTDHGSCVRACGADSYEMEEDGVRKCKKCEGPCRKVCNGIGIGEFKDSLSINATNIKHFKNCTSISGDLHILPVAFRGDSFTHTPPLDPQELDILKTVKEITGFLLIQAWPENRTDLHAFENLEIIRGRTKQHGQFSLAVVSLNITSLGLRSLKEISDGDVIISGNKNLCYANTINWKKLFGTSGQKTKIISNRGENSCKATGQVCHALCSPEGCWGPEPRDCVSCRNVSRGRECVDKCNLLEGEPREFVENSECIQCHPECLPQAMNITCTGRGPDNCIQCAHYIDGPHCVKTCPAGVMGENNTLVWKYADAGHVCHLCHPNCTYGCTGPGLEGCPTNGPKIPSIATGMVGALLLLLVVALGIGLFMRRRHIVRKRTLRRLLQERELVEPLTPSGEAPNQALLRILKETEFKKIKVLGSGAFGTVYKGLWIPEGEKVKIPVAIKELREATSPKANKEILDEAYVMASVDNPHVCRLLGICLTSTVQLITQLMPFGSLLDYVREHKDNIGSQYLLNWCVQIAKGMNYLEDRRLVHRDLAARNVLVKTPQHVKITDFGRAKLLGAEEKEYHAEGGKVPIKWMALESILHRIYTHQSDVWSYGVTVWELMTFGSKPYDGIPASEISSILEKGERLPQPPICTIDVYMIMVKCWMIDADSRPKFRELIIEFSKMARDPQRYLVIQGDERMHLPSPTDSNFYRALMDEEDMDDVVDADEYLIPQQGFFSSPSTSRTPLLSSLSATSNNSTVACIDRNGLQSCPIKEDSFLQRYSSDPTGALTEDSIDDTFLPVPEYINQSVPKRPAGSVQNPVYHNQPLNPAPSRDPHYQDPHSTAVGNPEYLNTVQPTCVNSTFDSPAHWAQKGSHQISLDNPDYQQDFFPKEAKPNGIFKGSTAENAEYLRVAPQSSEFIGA

For `Cc1cc2cc(n1)-c1cnn(C)c1OCC[C@H]1C[C@@H]1CN1/C(=N/C2=O)Nc2ccc(NC3CN(C4CCN(c5cnc(C6CCC(=O)NC6=O)cc5C)CC4)C3)cc21` (stereo partly shown) [Example 1, 3-(5-(4-(3-(((7^1S,7^2R,E)-1^1,2^6-dimethyl-3-oxo-5^2,5^3-dihydro-1^1H,5^1H-10-oxa-4-aza-5 (2,1)-benzo[d]imidazola-2 (2,4)-pyridina-1 (4,5)-pyrazola-7 (1,2)-cyclopropanacyclodecaphane-5^6-yl)amino)azetidin-1-yl)piperidin-1-yl)-4-methylpyridin-2-yl)piperidine-2,6-dione], in experiment [1], it took 15.7 nM to reach half-maximal degradation (DC50) and the Dmax was 68.4%.

In the case of `Cc1cc2cc(n1)-c1cnn(C)c1OCC[C@H]1C[C@@H]1CN1/C(=N/C2=O)Nc2ccc(N3CCN(C4CCN(c5ccc(C6CCC(=O)NC6=O)nc5C)CC4)C[C@@H]3C)cc21` (stereo partly drawn) [Example 3, 3-(5-(4-((S)-4-((7^1S,7^2R,E)-1^1,2^6-dimethyl-3-oxo-5^2,5^3-dihydro-1^1H,5^1H-10-oxa-4-aza-5 (2,1)-benzo[d]imidazola-2 (2,4)-pyridina-1 (4,5)-pyrazola-7 (1,2)-cyclopropanacyclodecaphane-5-yl)-3-methylpiperazin-1-yl)piperidin-1-yl)-6-methylpyridin-2-yl)piperidine-2,6-dione], the half-maximal degradation concentration (DC50) in experiment [2] stood at 3.1 nM; in experiment [1], 11.6 nM. In addition, the Dmax in experiment [2] amounted to 65.2%; in experiment [1], 85.5%.

In experiment [1], `Cc1cc2cc(n1)-c1cnn(C)c1OCC[C@H]1C[C@@H]1CN1/C(=N/C2=O)Nc2ccc(N3CCC(N4CC5CCC(C4)N5c4ccc(C5CCC(=O)NC5=O)nc4C)CC3)cc21` (stereo partly shown) [Example 4, 3-(5-(3-(1-((7^1S,7^2R,E)-1^1,2^6-dimethyl-3-oxo-5^2,5^3-dihydro-1^1H,5^1H-10-oxa-4-aza-5 (2,1)-benzo[d]imidazola-2 (2,4)-pyridina-1 (4,5)-pyrazola-7 (1,2)-cyclopropanacyclodecaphane-5^6-yl)piperidin-4-yl)-3,8-diazabicyclo[3.2.1]octan-8-yl)-6-methylpyridin-2-yl)piperidine-2,6-dione] showed a half-maximal degradation concentration (DC50) of 52.5 nM and a Dmax of 63.6%.

Take `Cc1cc2cc(n1)-c1cnn(C)c1OCC[C@H]1C[C@@H]1CN1/C(=N/C2=O)Nc2ccc(N3CCC(N4CC5CCC4CN5c4ccc(C5CCC(=O)NC5=O)nc4C)CC3)cc21` (stereo partly shown) [Example 5, 3-(5-(5-(1-((7^1S,7^2R,E)-1^1,2^6-dimethyl-3-oxo-5^2,5^3-dihydro-1^1H,5^1H-10-oxa-4-aza-5 (2,1)-benzo[d]imidazola-2 (2,4)-pyridina-1 (4,5)-pyrazola-7 (1,2)-cyclopropanacyclodecaphane-5^6-yl)piperidin-4-yl)-2,5-diazabicyclo[2.2.2]octan-2-yl)-6-methylpyridin-2-yl)piperidine-2,6-dione]: in experiment [1], the DC50 was found to be 72.2 nM and the Dmax is 70.3%.

In experiment [1], `Cc1cc2cc(n1)-c1cnn(C)c1OCC[C@H]1C[C@@H]1CN1/C(=N/C2=O)Nc2ccc(N3CC4CCC3CN4C3CCN(c4ccc(C5CCC(=O)NC5=O)nc4C)CC3)cc21` (stereo partly shown) [Example 6, 3-(5-(4-(5-((7^1S,7^2R,E)-1^1,2^6-dimethyl-3-oxo-5^2,5^3-dihydro-1^1H,5^1H-10-oxa-4-aza-5 (2,1)-benzo[d]imidazola-2 (2,4)-pyridina-1 (4,5)-pyrazola-7 (1,2)-cyclopropanacyclodecaphane-5^6-yl)-2,5-diazabicyclo[2.2.2]octan-2-yl)piperidin-1-yl)-6-methylpyridin-2-yl)piperidine-2,6-dione] came in with a DC50 of 17.1 nM and a Dmax of 82.2%.

In experiment [1], `Cc1cc2cc(n1)-c1cnn(C)c1OCC[C@H]1C[C@@H]1CN1/C(=N/C2=O)Nc2ccc(N3CCN(C[C@@H]4CCN(c5ccc(C6CCC(=O)NC6=O)nc5C)C4)CC3)cc21` (stereo partly drawn) [Example 9, 3-(5-((S)-3-((4-((7^1S,7^2R,E)-1^1,2^6-dimethyl-3-oxo-5^2,5^3-dihydro-1^1H,5^1H-10-oxa-4-aza-5 (2,1)-benzo[d]imidazola-2 (2,4)-pyridina-1 (4,5)-pyrazola-7 (1,2)-cyclopropanacyclodecaphane-5^6-yl)piperazin-1-yl)methyl)pyrrolidin-1-yl)-6-methylpyridin-2-yl)piperidine-2,6-dione] had a DC50 of 85.4 nM and a Dmax of 74.9%.

Turning to `Cc1cc2cc(n1)-c1cnn(C)c1OCC[C@H]1C[C@@H]1CN1/C(=N/C2=O)Nc2ccc(N3CCN(C4CN(C5CCN(c6cc(F)c([C@H]7CCC(=O)NC7=O)c(F)c6)CC5)C4)CC3)cc21` [Example 10, (R)-3-(4-(4-(3-(4-((7^1S,7^2R,E)-1^1,2^6-dimethyl-3-oxo-5^2,5^3-dihydro-1^1H,5^1H-10-oxa-4-aza-5 (2,1)-benzo[d]imidazola-2 (2,4)-pyridina-1 (4,5)-pyrazola-7 (1,2)-cyclopropanacyclodecaphane-5^6-yl)piperazin-1-yl)azetidin-1-yl)piperidin-1-yl)-2,6-difluorophenyl)piperidine-2,6-dione], in experiment [2], the DC50 was above 10000 nM and the Dmax is 31.2%. In experiment [1], the DC50 amounted to 6.97 nM and the Dmax worked out at 91.3%.

Turning to `Cc1cc2cc(n1)-c1cnn(C)c1OCC[C@H]1C[C@@H]1CN1/C(=N/C2=O)Nc2ccc(N3CCN([C@H]4CCN(c5cnc(C6CCC(=O)NC6=O)cc5C)C[C@H]4F)CC3)cc21` (stereo partly drawn) [Example 11, 3-(5-((3R,4S)-4-(4-((7^1S,7^2R,E)-1^1,2^6-dimethyl-3-oxo-5^2,5^3-dihydro-1^1H,5^1H-10-oxa-4-aza-5 (2,1)-benzo[d]imidazola-2 (2,4)-pyridina-1 (4,5)-pyrazola-7 (1,2)-cyclopropanacyclodecaphane-5^6-yl)piperazin-1-yl)-3-fluoropiperidin-1-yl)-4-methylpyridin-2-yl)piperidine-2,6-dione], in experiment [2], the DC50 amounted to 1.44 nM and the Dmax was 51.8%. Also, in experiment [1], it took 7.62 nM to reach half-maximal degradation (DC50) and the Dmax was 71.2%.

In the case of `Cc1cc2cc(n1)-c1cnn(C)c1OCC[C@H]1C[C@@H]1CN1/C(=N/C2=O)Nc2ccc(N3CCN([C@@H]4CCN(c5cnc(C6CCC(=O)NC6=O)cc5C)C[C@@H]4F)CC3)cc21` (stereo partly drawn) [Example 12, 3-(5-((3S,4R)-4-(4-((7^1S,7^2R,E)-1^1,2^6-dimethyl-3-oxo-5^2,5^3-dihydro-1^1H,5^1H-10-oxa-4-aza-5 (2,1)-benzo[d]imidazola-2 (2,4)-pyridina-1 (4,5)-pyrazola-7 (1,2)-cyclopropanacyclodecaphane-5^6-yl)piperazin-1-yl)-3-fluoropiperidin-1-yl)-4-methylpyridin-2-yl)piperidine-2,6-dione], in experiment [2], the DC50 was 16 nM and the Dmax amounted to 54.4%. In experiment [1], it took 18.4 nM to reach half-maximal degradation (DC50) and the Dmax came to 73.6%.

Take `Cc1cc2cc(n1)-c1cnn(C)c1OCC[C@H]1C[C@@H]1CN1/C(=N/C2=O)Nc2ccc(N3CCN(CC4CN(c5ccc6c(c5)C(C)(C)C(=O)N6C5CCC(=O)NC5=O)C4)CC3)cc21` (stereo partly shown) [Example 13, 3-(5-(3-((4-((7^1S,7^2R,E)-1^1,2^6-dimethyl-3-oxo-5^2,5^3-dihydro-1^1H,5^1H-10-oxa-4-aza-5 (2,1)-benzo[d]imidazola-2 (2,4)-pyridina-1 (4,5)-pyrazola-7 (1,2)-cyclopropanacyclodecaphane-5^6-yl)piperazin-1-yl)methyl)azetidin-1-yl)-3,3-dimethyl-2-oxoindolin-1-yl)piperidine-2,6-dione]: in experiment [1], it took 8.09 nM to reach half-maximal degradation (DC50) and the Dmax is 82.2%.

The DC50 is the midpoint of the concentration-degradation curve. Read a low DC50 as degradation at low concentration. As usually defined, the Dmax is the largest share of the target that was removed. A lower Dmax goes with a partial loss of target.

Values taken from US20260077051A1, “COMPOUNDS FOR THE DEGRADATION OF EGFR KINASE” (BeOne Medicines I GmbH, priority 2023, published 2026).
